From patent US12522598B2, “3-(2-(heteroaryl)-pyridin-4-yl)-5-(trifluoromethyl)-1,2,4-oxadiazole derivatives as HDAC6 inhibitors” (ORYZON GENOMICS, S.A., priority 2019, dated 2026) come the findings set out here.

The target in the test is T1, HDAC6 (Homo sapiens, UniProt Q9UBN7).
T1 construct: purchased BPS Bioscience 50006
T1 sequence (Q9UBN7 1-1215): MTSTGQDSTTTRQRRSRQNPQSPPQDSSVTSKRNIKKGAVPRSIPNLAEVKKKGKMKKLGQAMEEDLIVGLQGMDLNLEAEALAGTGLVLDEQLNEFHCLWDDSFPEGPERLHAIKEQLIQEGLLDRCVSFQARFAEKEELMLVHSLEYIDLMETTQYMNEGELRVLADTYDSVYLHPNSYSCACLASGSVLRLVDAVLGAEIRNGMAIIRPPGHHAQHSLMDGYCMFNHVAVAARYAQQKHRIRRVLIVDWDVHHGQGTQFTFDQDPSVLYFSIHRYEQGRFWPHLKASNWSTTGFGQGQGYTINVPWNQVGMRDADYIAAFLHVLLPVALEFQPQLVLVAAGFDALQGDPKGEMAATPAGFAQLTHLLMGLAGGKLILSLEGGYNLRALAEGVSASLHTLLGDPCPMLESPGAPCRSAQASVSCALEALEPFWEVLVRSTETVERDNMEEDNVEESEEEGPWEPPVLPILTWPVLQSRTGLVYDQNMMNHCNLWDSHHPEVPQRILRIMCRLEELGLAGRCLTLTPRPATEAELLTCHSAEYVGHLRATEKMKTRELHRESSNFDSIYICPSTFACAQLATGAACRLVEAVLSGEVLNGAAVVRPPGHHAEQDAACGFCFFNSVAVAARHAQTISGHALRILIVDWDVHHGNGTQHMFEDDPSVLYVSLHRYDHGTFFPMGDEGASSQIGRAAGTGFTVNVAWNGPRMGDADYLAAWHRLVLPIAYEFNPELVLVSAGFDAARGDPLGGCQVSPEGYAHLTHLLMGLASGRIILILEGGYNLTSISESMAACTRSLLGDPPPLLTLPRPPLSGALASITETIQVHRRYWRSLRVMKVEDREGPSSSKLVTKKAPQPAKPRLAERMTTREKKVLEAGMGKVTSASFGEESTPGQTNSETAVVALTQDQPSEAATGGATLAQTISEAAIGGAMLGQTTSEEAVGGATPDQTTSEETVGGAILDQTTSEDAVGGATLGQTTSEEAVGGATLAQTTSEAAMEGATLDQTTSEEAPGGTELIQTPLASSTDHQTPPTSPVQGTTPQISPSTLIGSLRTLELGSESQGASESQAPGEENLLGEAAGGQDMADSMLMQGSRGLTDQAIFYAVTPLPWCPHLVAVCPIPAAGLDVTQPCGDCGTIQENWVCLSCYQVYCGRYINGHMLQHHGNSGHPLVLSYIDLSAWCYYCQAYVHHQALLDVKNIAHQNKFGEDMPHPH
The experiment in a line: HDAC6 enzyme inhibition assay (fluorimetric). The class given is biochemical. As to conditions: 3 hours preincubation with enzyme, fraction of positive control; for inhibition at 0.1 µM: read-out: HDAC6 % inh @ 0.1 μM; for inhibition at 0.3 µM: read-out: HDAC6 % inh @ 0.3 μM; for inhibition at 1 µM: read-out: HDAC6 % inh @ 1 μM. Here is the method:
A fluorimetric assay was used to determine the biochemical activity of the inhibitors on HDAC6 in 96-Well Half Area Black Microplates (Corning #3686)+TopSeal-A Black Sealing Film (Perkin Elmer #6050173). Test compounds were dissolved in DMSO. Half-log serial dilutions of test compounds were prepared in DMSO and then diluted 1:10 in assay buffer (BPS Bioscience #50031).
2.5 μL of enzyme (BPS Bioscience #50006) was incubated with 2.5 μL of test compounds for 3 hours in assay buffer with 0.1 mg/mL Bovine Serum Albumin (Sigma-Aldrich #A7030) at 21° C. in 22.5 μL total volume. The enzymatic reaction was started with the addition of 2.5 μL of a fluorogenic acetylated peptide substrate (BPS Bioscience #50037). The final concentration of enzyme and substrate in the reaction were 8.8 nM and 9 μM, respectively. After 45 minutes of incubation at 37° C., the addition of 25 μL of a development solution (BPS
Bioscience #50030) releases a fluorophore whose amount is proportional to the amount of the deacetylated product. Fluorescence intensity was measured after 15 minutes incubation at 21° C. with a Tecan Infinite F200 microplate reader (excitation 360 nm-emission 460 nm).
The negative control (background) was represented by the reaction mix in the absence of the enzyme (with 0.1% DMSO), while the positive control of deacetylase activity was obtained in the absence of test compounds (with 0.1% DMSO) after background subtraction. Percentage of inhibition was calculated as a fraction of the positive control.

The structures appear in SMILES notation. Counter-ions that a name gives are not always drawn.

With `CCN(C)C(=O)c1cc2cc(-c3cc(-c4noc(C(F)(F)F)n4)ccn3)ncc2n1C` [Example 2b, N-Ethyl-N,1-dimethyl-5-(4-(5-(trifluoromethyl)-1,2,4-oxadiazol-3-yl)pyridin-2-yl)-1H-pyrrolo[2,3-c]pyridine-2-carboxamide hydrochloride], the inhibition at 0.1 µM (0.1 μM test compound) stood at 89%. For the same compound, the inhibition at 0.3 µM (0.3 μM test compound) was 95%. Moreover, under “1 μM test compound”, the inhibition at 1 µM is 96%.
As to `CC1(C)C2CCC1(CS(=O)(=O)O)C(=O)C2.Cn1c(C(=O)N2CC[C@H](O)C2)cc2cc(-c3cc(-c4noc(C(F)(F)F)n4)ccn3)ncc21` [Example 6, (S)-(3-Hydroxypyrrolidin-1-yl)(1-methyl-5-(4-(5-(trifluoromethyl)-1,2,4-oxadiazol-3-yl)pyridin-2-yl)-1H-pyrrolo[2,3-c]pyridin-2-yl)methanone (+) Camphorsulfonate Salt], the “HDAC6 % inh @ 0.1 μM” value (0.1 μM test compound) came out at 61%. The “HDAC6 % inh @ 0.3 μM” value (0.3 μM test compound) is given as 81%. Further, the “HDAC6 % inh @ 1 μM” value (1 μM test compound) was found to be 91%.
`FC(F)(F)c1nc(-c2ccnc(-c3nn(CC4CCOCC4)c4cccnc34)c2)no1` [Example 1f, 3-(2-(1-((Tetrahydro-2H-pyran-4-yl)methyl)-1H-pyrazolo[4,3-b]pyridin-3-yl)pyridin-4-yl)-5-(trifluoromethyl)-1,2,4-oxadiazole]: where the note is “0.1 μM test compound”, the inhibition at 0.1 µM is 54%. The inhibition at 0.3 µM (0.3 μM test compound) turned out to be 81%. Besides, the inhibition at 1 µM (1 μM test compound) is 94%.
With `Cn1c(C(=O)N(CCO)CCO)cc2cc(-c3cc(-c4noc(C(F)(F)F)n4)ccn3)ncc21` [Example 1d, N,N-Bis(2-hydroxyethyl)-1-methyl-5-(4-(5-(trifluoromethyl)-1,2,4-oxadiazol-3-yl)pyridin-2-yl)-1H-pyrrolo[2,3-c]pyridine-2-carboxamide], the inhibition at 0.1 µM (0.1 μM test compound) was 79%. Moreover, under “0.3 μM test compound”, the inhibition at 0.3 µM was found to be 91%. Besides, for the setting “1 μM test compound”, the inhibition at 1 µM turned out to be 96%.
